A short description of experiment [1]: DPPH radical scavenging activity assay. The note with it: for DPPH clearance rate: 30 min, 517 nm, n = 3. From the text: In the DPPH molecule, due to the presence of multiple electron-withdrawing —NO2 and large π bonds of the benzene ring, nitrogen free radical is stabilized. Its methanol solution is purple and has a maximum absorption peak at 517 nm. After the addition of an antioxidant, DPPH captures an electron to be paired with the free electron, and the purple fades and turns into a yellow substance. The absorption at 517 nm disappears, and the degree of fading is quantitatively related to the number of electrons it captures. Based on this principle, a spectrophotometer is used to detect the change of the absorbance of the DPPH radical and the sample solution, and the ability of the sample to provide hydrogen atoms and scavenge free radicals can be measured. […] Vc (positive control), cinnamyl alcohol retinoic acid ester (sample), cinnamyl alcohol (control) and retinoic acid (control). The sample solution was subjected to gradient dilution with toluene, and three sets of controls were separately dissolved in a test tube with a certain amount of toluene to prepare the same concentration gradient as the sample. [table] […] Clearance calculation: Clearance Rate (%)=[1−(Ai−Aj)/Ao]*100%
A general note: DPPH is a stable violet radical that fades when it is reduced.

Experiment [2] deals with Multi-resistant Pseudomonas aeruginosa 18-202. Briefly: Paper diffusion drug sensitivity test, multi-resistant Pseudomonas aeruginosa 18-202. The note with it: for Zone of inhibition: drug sensitive paper 6.35 mm, test drugs 30 μg/tablet, 37° C. 24 h; for Antibacterial effect (in words): summary of Table 4.
Experiment [3] relates to Multi-resistant Staphylococcus aureus 18-596. Description: Paper diffusion drug sensitivity test, multi-resistant Staphylococcus aureus 18-596. The note with it: for Zone of inhibition: drug sensitive paper 6.35 mm, test drugs 30 μg/tablet, 37° C. 24 h; for Antibacterial effect (in words): summary of Table 4.

The values below come from US11072575B1, “Method of preparing a cinnamyl alcohol retinoic acid ester with antioxidant and antibacterial activities” (priority 2020, dated 2021).

In the case of `CC1=C(/C=C/C(C)=C/C=C/C(C)=C/C(=O)OC/C=C/c2ccccc2)C(C)(C)CCC1` [Cinnamyl alcohol retinoic acid ester, (2E,4E,6E,8E)-cinnamyl 3,7-dimethyl-9-(2,6,6-trimethylcyclohex-1-en-1-yl)nona-2,4,6,8-tetraenoate], the DPPH clearance rate in experiment [1] (1.76 ppm in toluene) was 13.16%; in experiment [1] (8.80 ppm in toluene), 17.53%; in experiment [1] (21.12 ppm in toluene), 31.95%; in experiment [1] (42.24 ppm in toluene), 42.08%; in experiment [1] (79.20 ppm in toluene), 68.62%; in experiment [1] (112.64 ppm in toluene), 75.46%. Also, the DPPH clearance rate in experiment [1] (281.60 ppm in toluene) is given as 79.44%; in experiment [1] (492.80 ppm in toluene) it was 83.15%; in experiment [1] (792.00 ppm in toluene), 90.77%; in experiment [1] (915.20 ppm in toluene), 95.43%. In addition, the “Antioxidant activity (in words)” value in experiment [1] (summary) is on record as “excellent antioxidant activity”. Besides, the results for the Zone of inhibition in experiment [2] and in experiment [3] were 21 mm and 20 mm, respectively. The “Antibacterial effect (in words)” value in experiment [2] and in experiment [3] was “strong resistance” in each case.

Regarding `OCC=Cc1ccccc1` [Cinnamyl alcohol, cinnamyl alcohol], the DPPH clearance rate in experiment [1] (1.76 ppm in toluene) is listed as 6.89%; in experiment [1] (8.80 ppm in toluene), 7.95%; in experiment [1] (21.12 ppm in toluene), 17.86%; in experiment [1] (42.24 ppm in toluene), 25.71%; in experiment [1] (79.20 ppm in toluene), 37.96%; in experiment [1] (112.64 ppm in toluene), 44.56%. Besides, the DPPH clearance rate in experiment [1] (281.60 ppm in toluene) is reported as 59.23%; in experiment [1] (492.80 ppm in toluene), 64.94%; in experiment [1] (792.00 ppm in toluene), 73.54%; in experiment [1] (915.20 ppm in toluene) it was 75.82%. Further, the Zone of inhibition was found to be 6 mm in experiment [2] and 14 mm in experiment [3]. Also, the “Antibacterial effect (in words)” value in experiment [2] and in experiment [3] was “little inhibitory effect” each time.

On to `CC1=C(/C=C/C(C)=C/C=C/C(C)=C/C(=O)O)C(C)(C)CCC1` [Retinoic acid, retinoic acid], for which the Zone of inhibition is 7 mm in experiment [2] and 8 mm in experiment [3].

With `CN[C@H](CC(C)C)C(=O)N[C@H]1C(=O)N[C@@H](CC(N)=O)C(=O)N[C@H]2C(=O)N[C@H]3C(=O)N[C@H](C(=O)N[C@H](C(=O)O)c4cc(O)cc(O)c4-c4cc3ccc4O)[C@H](O)c3ccc(c(Cl)c3)Oc3cc2cc(c3O[C@@H]2O[C@H](CO)[C@@H](O)[C@H](O)[C@H]2O[C@H]2C[C@](C)(N)[C@H](O)[C@H](C)O2)Oc2ccc(cc2Cl)[C@H]1O` [Vancomycin], the Zone of inhibition in experiment [2] is 9 mm; in experiment [3], 21 mm.

With `O=C1O[C@H]([C@@H](O)CO)C(O)=C1O` [Vc], the DPPH clearance rate is on record as 23.16% in experiment [1] (1.76 ppm in toluene); 33.47% in experiment [1] (8.80 ppm in toluene); 79.63% in experiment [1] (21.12 ppm in toluene); 89.55% in experiment [1] (42.24 ppm in toluene); 97.42% in experiment [1] (79.20 ppm in toluene); 97.53% in experiment [1] (112.64 ppm in toluene). Also, the DPPH clearance rate came out at 98.29% in experiment [1] (281.60 ppm in toluene), 99.06% in experiment [1] (492.80 ppm in toluene), 99.10% in experiment [1] (792.00 ppm in toluene) and 99.28% in experiment [1] (915.20 ppm in toluene).

Gentamicin: the figures for the Zone of inhibition in experiment [2] and in experiment [3] were 21 mm and 10 mm, respectively.
